This assay deals with CD2F1 mice, L1210 leukemia ip, survival T/C. The assay can be described thus: NCI In Vivo Anticancer Drug Screen. Data for tumor model L1210 Leukemia (intraperitoneal) in CD2F1 (CDF1) mice. To be noted: higher = longer survival. An outline of the steps:
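Antitumor effect is scored in animals hosting a serially transplanted tumor. Values compare compound-dosed animals against vehicle-only controls as a simple quotient.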

The mark [1] stands for this setting: endpoint: mean survival time, dose: 100.0 mg/kg/injection, schedule: Q01DX009 (ip), vehicle: saline with Tween-80.
Setting [2] is: endpoint: mean survival time, dose: 200.0 mg/kg/injection, schedule: Q01DX009 (ip), vehicle: saline with Tween-80.
Where [3] appears, read: endpoint: mean survival time, dose: 100.0 mg/kg/injection, schedule: Q01DX001 (ip), vehicle: saline with Tween-80.
Setting [4] is: endpoint: mean survival time, dose: 200.0 mg/kg/injection, schedule: Q01DX001 (ip), vehicle: saline with Tween-80.
[5] abbreviates: endpoint: mean survival time, dose: 400.0 mg/kg/injection, schedule: Q01DX001 (ip), vehicle: saline with Tween-80.
[6] abbreviates: endpoint: mean survival time, dose: 50.0 mg/kg/injection, schedule: Q01DX009 (ip), vehicle: saline with Tween-80.
The mark [7] stands for this setting: endpoint: mean survival time, dose: 25.0 mg/kg/injection, schedule: Q01DX009 (ip), vehicle: saline with Tween-80.

Where “and” joins values, the source holds several entries; their conditions need not be identical. Identical values can stand only once. Inconclusive results and toxic doses are left out.

For `COc1cc2cc3c(c(O)c2c(O)c1/C=C/C(C)C)C(=O)CC(C)(OC(C)=O)C3` (configuration not stated), the T/C is 105 % of control (endpoint: median survival time, dose: 1.25 mg/kg/injection, schedule: Q01DX009 (ip), vehicle: Klucel (hydroxypropylcellulose) (HPC)); 102 % of control (endpoint: median survival time, dose: 2.5 mg/kg/injection, schedule: Q01DX009 (ip), vehicle: Klucel (hydroxypropylcellulose) (HPC)); 113 % of control (endpoint: median survival time, dose: 5.0 mg/kg/injection, schedule: Q01DX009 (ip), vehicle: Klucel (hydroxypropylcellulose) (HPC)); 116 % of control and 121 % of control (endpoint: median survival time, dose: 10.0 mg/kg/injection, schedule: Q01DX009 (ip), vehicle: Klucel (hydroxypropylcellulose) (HPC)); 98 % of control and 105 % of control (endpoint: median survival time, dose: 20.0 mg/kg/injection, schedule: Q01DX009 (ip), vehicle: Klucel (hydroxypropylcellulose) (HPC)).

As to `Nc1c[n+]([O-])cc2ccccc12`, the T/C by setting is: (endpoint: mean survival time, dose: 100.0 mg/kg/injection, schedule: Q04DX003 (ip), vehicle: saline with Tween-80) 94 % of control; (endpoint: mean survival time, dose: 200.0 mg/kg/injection, schedule: Q04DX003 (ip), vehicle: saline with Tween-80) 94 % of control.

On to `O=[N+]([O-])c1ccc(/C=C/c2ccc([N+](=O)[O-])cc2S(=O)(=O)O)c(S(=O)(=O)O)c1`, for which the T/C under setting [1] was 102 % of control; the T/C under setting [2] was 105 % of control; the T/C (endpoint: mean survival time, dose: 400.0 mg/kg/injection, schedule: Q01DX009 (ip), vehicle: saline with Tween-80) is 94 % of control.

In the case of `Nc1nnc(Cl)s1`, the T/C runs as follows: under setting [3], 108 % of control; under setting [4], 104 % of control; under setting [5], 97 % of control.

For the molecule `CCCCOC1CCC2(C)C(=CCC3C2CCC2(C)C(C(C)CCCC(C)C)CCC32)C1` (configuration not stated), the T/C (endpoint: mean survival time, dose: 100.0 mg/kg/injection, schedule: Q01DX009 (sc), vehicle: steriod suspending solution) is 114 % of control; the T/C (endpoint: mean survival time, dose: 100.0 mg/kg/injection, schedule: Q04DX003 (sc), vehicle: steriod suspending solution) is 91 % of control; the T/C (endpoint: mean survival time, dose: 200.0 mg/kg/injection, schedule: Q01DX009 (sc), vehicle: steriod suspending solution) is 102 % of control; the T/C (endpoint: mean survival time, dose: 200.0 mg/kg/injection, schedule: Q04DX003 (sc), vehicle: steriod suspending solution) is 96 % of control; the T/C (endpoint: mean survival time, dose: 400.0 mg/kg/injection, schedule: Q01DX009 (sc), vehicle: steriod suspending solution) was 103 % of control; the T/C (endpoint: mean survival time, dose: 400.0 mg/kg/injection, schedule: Q04DX003 (sc), vehicle: steriod suspending solution) was 102 % of control.

For `COc1cc2ccc3c4cc(OC)c(OC)cc4c[n+](C)c3c2cc1O`, the T/C is 113 % of control (endpoint: mean survival time, dose: 75.0 mg/kg/injection, schedule: Q04DX003 (ip), vehicle: Klucel (hydroxypropylcellulose) (HPC)); 113 % of control (endpoint: mean survival time, dose: 150.0 mg/kg/injection, schedule: Q04DX003 (ip), vehicle: Klucel (hydroxypropylcellulose) (HPC)); 119 % of control (endpoint: mean survival time, dose: 300.0 mg/kg/injection, schedule: Q04DX003 (ip), vehicle: Klucel (hydroxypropylcellulose) (HPC)).

Consider `CN=C(N)c1ccc(N=C(N)c2ccc(NC(=O)c3ccc(C(N)=NC)cc3)cc2)cc1`, for which the T/C (endpoint: mean survival time, dose: 30.0 mg/kg/injection, schedule: Q01DX Z (ip), vehicle: water) is 151 % of control.

In the case of `CSc1sc2ccccc2[n+]1C`, the T/C (endpoint: mean survival time, dose: 25.0 mg/kg/injection, schedule: Q01DX009 (ip), vehicle: saline) was 100 % of control and the T/C (endpoint: mean survival time, dose: 50.0 mg/kg/injection, schedule: Q01DX009 (ip), vehicle: saline) is 110 % of control.

As for `CCCC/C=C/C(C)(C)O`, the T/C is 107 % of control under setting [6], 103 % of control under setting [1] and 107 % of control under setting [2].

Take `CC1(CO)CCCC2(C)C3=CC(=O)CCC3CCC12` (configuration not stated): the T/C reads like this: under setting [3], 95 % of control; under setting [4], 101 % of control; under setting [5], 97 % of control.

For the molecule `NC(=S)N/N=C\c1ncccc1O`, the T/C (endpoint: mean survival time, dose: 25.0 mg/kg/injection, schedule: Q03HX024 (ip), vehicle: saline) was 120 % of control.

Regarding `O=C(C[n+]1ccccc1)N/N=C/c1ccccc1Cl`, the T/C under setting [1] is 105 % of control.

`Cc1cc(C)c(S(=O)O)c(C)c1`: the T/C reads like this: (endpoint: mean survival time, dose: 100.0 mg/kg/injection, schedule: Q01DX001 (ip), vehicle: saline) 103 % of control; (endpoint: mean survival time, dose: 200.0 mg/kg/injection, schedule: Q01DX001 (ip), vehicle: saline) 103 % of control; (endpoint: mean survival time, dose: 400.0 mg/kg/injection, schedule: Q01DX001 (ip), vehicle: saline) 103 % of control.

Regarding `CC1OC(n2ccc(=O)[nH]c2=O)C(O)C(O)C1=O` (configuration not stated), the T/C (endpoint: median survival time, dose: 26.5 mg/kg/injection, schedule: Q01DX005 (ip), vehicle: Klucel (hydroxypropylcellulose) (HPC)) is 102 % of control; the T/C (endpoint: median survival time, dose: 53.0 mg/kg/injection, schedule: Q01DX005 (ip), vehicle: Klucel (hydroxypropylcellulose) (HPC)) was 100 % of control; the T/C (endpoint: median survival time, dose: 106.0 mg/kg/injection, schedule: Q01DX005 (ip), vehicle: Klucel (hydroxypropylcellulose) (HPC)) was 107 % of control; the T/C (endpoint: median survival time, dose: 212.0 mg/kg/injection, schedule: Q01DX005 (ip), vehicle: Klucel (hydroxypropylcellulose) (HPC)) was 101 % of control.

In the case of `C=C(Br)CNC(=O)CCCl`, the T/C was 102 % of control (endpoint: mean survival time, dose: 1.56 mg/kg/injection, schedule: Q01DX009 (ip), vehicle: other); 103 % of control (endpoint: mean survival time, dose: 3.13 mg/kg/injection, schedule: Q01DX009 (ip), vehicle: other); 100 % of control (endpoint: mean survival time, dose: 6.25 mg/kg/injection, schedule: Q01DX009 (ip), vehicle: other); 103 % of control (endpoint: mean survival time, dose: 6.25 mg/kg/injection, schedule: Q04DX003 (ip), vehicle: other); 100 % of control (endpoint: mean survival time, dose: 12.5 mg/kg/injection, schedule: Q04DX003 (ip), vehicle: other); 105 % of control (endpoint: mean survival time, dose: 25.0 mg/kg/injection, schedule: Q04DX003 (ip), vehicle: other).

In the case of `CC(C)(O)CN`, the T/C by setting is: under setting [7], 95 % of control; under setting [6], 98 % of control; under setting [1], 91 % of control.

Turning to `CCCCCCCCC(=O)CC`, the T/C reads like this: (endpoint: mean survival time, dose: 100.0 mg/kg/injection, schedule: Q04DX003 (ip), vehicle: saline) 98 % of control; (endpoint: mean survival time, dose: 200.0 mg/kg/injection, schedule: Q04DX003 (ip), vehicle: saline) 98 % of control; (endpoint: mean survival time, dose: 400.0 mg/kg/injection, schedule: Q04DX003 (ip), vehicle: saline) 93 % of control.

With `O=S(=O)(c1ccc(NC(=S)N/N=C/c2ccccc2O)cc1)N1CCCCC1`, the T/C (endpoint: mean survival time, dose: 12.5 mg/kg/injection, schedule: Q01DX009 (ip), vehicle: olive oil, sesame oil, peanut oil) was 98 % of control; the T/C (endpoint: mean survival time, dose: 25.0 mg/kg/injection, schedule: Q01DX009 (ip), vehicle: olive oil, sesame oil, peanut oil) was 94 % of control; the T/C (endpoint: mean survival time, dose: 50.0 mg/kg/injection, schedule: Q01DX009 (ip), vehicle: olive oil, sesame oil, peanut oil) is 102 % of control; the T/C (endpoint: mean survival time, dose: 100.0 mg/kg/injection, schedule: Q01DX009 (ip), vehicle: olive oil, sesame oil, peanut oil) is 104 % of control; the T/C (endpoint: mean survival time, dose: 200.0 mg/kg/injection, schedule: Q01DX009 (ip), vehicle: olive oil, sesame oil, peanut oil) was 94 % of control; the T/C (endpoint: mean survival time, dose: 400.0 mg/kg/injection, schedule: Q01DX009 (ip), vehicle: olive oil, sesame oil, peanut oil) is 96 % of control.

Take `O=C(O)c1ccc(Cl)c2ncccc12`: the T/C (endpoint: mean survival time, dose: 37.5 mg/kg/injection, schedule: Q01DX009 (ip), vehicle: saline) is 100 % of control; the T/C (endpoint: mean survival time, dose: 75.0 mg/kg/injection, schedule: Q01DX009 (ip), vehicle: saline) is 95 % of control; the T/C (endpoint: mean survival time, dose: 75.0 mg/kg/injection, schedule: Q04DX003 (ip), vehicle: saline) was 100 % of control; the T/C (endpoint: mean survival time, dose: 150.0 mg/kg/injection, schedule: Q01DX009 (ip), vehicle: saline) was 105 % of control; the T/C (endpoint: mean survival time, dose: 150.0 mg/kg/injection, schedule: Q04DX003 (ip), vehicle: saline) is 97 % of control; the T/C (endpoint: mean survival time, dose: 300.0 mg/kg/injection, schedule: Q04DX003 (ip), vehicle: saline) was 95 % of control.

Turning to `O=S1(=O)C=CCCC=C1`, the T/C was 93 % of control (endpoint: mean survival time, dose: 50.0 mg/kg/injection, schedule: Q01DX009 (ip), vehicle: Klucel (hydroxypropylcellulose) (HPC)) and 93 % of control (endpoint: mean survival time, dose: 100.0 mg/kg/injection, schedule: Q01DX009 (ip), vehicle: Klucel (hydroxypropylcellulose) (HPC)).

Regarding `Cc1cscc(C)c1=S`, the T/C is, setting by setting: (endpoint: mean survival time, dose: 100.0 mg/kg/injection, schedule: Q04DX003 (ip), vehicle: saline sonified) 98 % of control; (endpoint: mean survival time, dose: 200.0 mg/kg/injection, schedule: Q04DX003 (ip), vehicle: saline sonified) 98 % of control; (endpoint: mean survival time, dose: 400.0 mg/kg/injection, schedule: Q04DX003 (ip), vehicle: saline sonified) 100 % of control.

As to `CSC(Cl)=C(Cl)Cl`, the T/C is 97 % of control under setting [7], 95 % of control under setting [6] and 97 % of control under setting [1].
